How the values were obtained:
JEG-3 cells [1] = experiment: JEG-3 protocol: [3H]-thymidine incorporation (leptin assay in non-recombinant system); format: cell-based; conditions: FIG. 4
Protocol: In JEG-3 cells (choriocarcinoma cell line) leptin is able to stimulate proliferation up to 3 fold (Biol. Reprod. (2007) 76: 203-10). […] The radioactivity incorporated by the cells is an index of their proliferative activity and is measured in counts per minute (CPM) with a liquid scintillation beta counter.
This finding can be applied to test whether a compound is able to either reproduce the effect of leptin on cell proliferation (leptin receptor agonist mimetic) (i.e., a given compound will cause an increase in incorporated [^3H]-Thymidine by the cells) or to inhibit the effect of leptin (antagonistic effect) by preventing the leptin-mediated increase in [^3H]-thymidine incorporation.
This approach has the advantage of using a non-recombinant system and has reasonable reproducibility and robustness.

JEG-3 cells [2] = conditions: Biol. Reprod. (2007) 76: 203-10; cited from earlier work

Substance: Leptin: a hormone synthesized in fat cells that is believed to act in the hypothesis to reduce food intake and body weight
- EC50 (JEG-3 cells [1]; JEG-3 cells (choriocarcinoma cell line), read-out: EC50, concentration-dependent increase in [3H]-thymidine incorporation): 2.1 nM
- concentration of maximal effect on [3H]-thymidine incorporation (JEG-3 cells [1]; JEG-3 cells): 100 nM
- stimulation of proliferation (JEG-3 cells [2]): up to 3 fold

From patent publication US20110275670A1, “New Compounds VII” (priority 2008, published 2011)
